Assay results: patent EP0521435A2, “Method to promote the production of secondary metabolites in plant cell cultures” (B.A.T. Cigarettenfabriken GmbH, priority 1991, dated 1993)

What was measured:
[1] = system: Kultur von Rubia tinctorum; test: Elicitation of anthraquinones (alizarin) in cell culture; assay type: cell-based; conditions: added after 4 days, harvested after 7 days; concentration not given
Source text: (§1) B. Glukoseester, Aminosäure- oder andere Kohlenhydrataddukte eingesetzt werden.
Eine Kultur von Rubia tinctorum wird in LS-Medium kultiviert. Nach 4 Tagen werden der Kultur 2',3'-Dihydrojasmonat zugesetzt. Nach 7 Tagen wird die Kultur geerntet und der Anthrachinon-Gehalt bestimmt. Der Zuwachs an Alizarin beträgt das ca. 40-fache gegenüber der Kontrolle.

[2] = system: Rauwolfia canescens Zellkultur; test: Induction of new indole alkaloids in cell culture; assay type: cell-based; conditions: 200 µmol/l; cultivated 6 further days; number of new alkaloids
Source text: as §1
Einer 4 Tage alten Rauwolfia canescens Zellkultur (LS-Medium) wird 3-Hydroxyjasmonat zu einer Endkonzentration von 200 µmol/l zugesetzt. Die Kultur wird 6 Tage weiterkultiviert und mit einer entsprechenden Kontrolle, der kein 3-Hydroxyjasmonat zugesetzt wurde, verglichen. Dabei zeigt sich, daß in dieser Zellkultur 6 Indolalkaloide gebildet werden, die in der Kontrollkultur nicht vorkommen.

[3] = system: Zellkultur von Lactuca sativa; test: Elicitation of lettucenin A in cell culture; assay type: cell-based; conditions: 250 µmol/l; extraction 6 days later; not detectable in control culture
Experimental: as §1
Eine Zellkultur von Lactuca sativa wird 24 Stunden nach dem Überimpfen in LS-Medium mit 3-Hydroxyjasmonsäure zu einer Endkonzentration von 250 µmol/l versetzt. Die Extraktion mit Methanol erfolgt 6 Tage später. Die elicitierten Kulturen enthalten das Custonolid Lettucenin A in einer Konzentration von ca. 30 mg/I. In den Extrakten einer Kontrollkultur ist Lettucenin A nicht nachweisbar.

Gossypium herbaceum = assay type: cell-based; conditions: concentration of elicitor not given
Source text: (§2) Weitere Beispiele sind: Digitalis purpurea: Cardenoloide, die unter dem Einfluß von Jasmonat gegenüber der Kontrolle eine 2-fach gesteigerte Konzentration erreichen; Linum hirsutum: Lignane, die 2,5-fach gesteigert sind; Gossypium herbaceum: Gossipol, 10-fach gesteigert gegenüber der Kontrolle; isolierte Wurzelkulturen von Hyoscyamus alba: Hyoscyamin/Scopolamin: stark parasympatholytische bzw. zentraldämpfende, medizinisch wertvolle Alkaloide, 12-fache Steigerung gegenüber der Kontrolle; Zellkulturen von Colchicum autumnale, die das Gichtmittel Colchicin produzieren, 8-fache Steigerung gegenüber der Kontrolle; Zellkulturen von Cephaelis ipecacuanha, die das arzneilich genutzte Emetin produzieren, das bei Keuchhusten und Bronchialasthma sowie als erbrechungsförderndes Mittel Anwendung findet, 7,5-fache Steigerung gegenüber der Kontrolle; Zellkulturen von Cinchona succirubra bzw. Cinchona ledgeriana, die medizinisch als Antiarhythmikum bzw. als Chemotherapeutikum (Malaria) eingesetzt werden, Steigerung 14-fach; Zellkulturen von Rauwolfia serpentina, die die therapeutisch genutzten Indolalkaloide Reserpin (blutdrucksenkend, sedierend), Serpentin (blutdrucksenkend), Ajmalin (bei Herzrhythmusstörungen), Ajmalicin (Gehirn-durchblutungsfördernd), Yohimbin (durchblutungsfördernd) produzieren.
as §1

Digitalis purpurea = assay type: cell-based; conditions: concentration of elicitor not given
Source text: as §2, §1

[4] = system: Zellkulturen von Cephaelis ipecacuanha; assay type: cell-based; conditions: concentration of elicitor not given
Source text: as §2, §1

[5] = system: Zellkulturen von Colchicum autumnale; assay type: cell-based; conditions: concentration of elicitor not given
Source text: as §2, §1

[6] = system: isolierte Wurzelkulturen von Hyoscyamus alba; assay type: cell-based; conditions: isolated root cultures; concentration of elicitor not given
Source text: as §2, §1

Linum hirsutum = test: Elicitation of lignans; assay type: cell-based; conditions: versus control; concentration of elicitor not given
Source text: as §2, §1

[7] = system: Zellkulturen von Cinchona succirubra bzw. Cinchona ledgeriana; test: Elicitation of secondary metabolites in Cinchona cell cultures; assay type: cell-based; conditions: product not named in b24 (Chinidin und Chinin according to b23); concentration of elicitor not given
Source text: Beispiele für Sekundärstoffe, die durch das erfindungsgemäße Verfahren produziert werden können, sind: Atropin und Scopolamin, isoliert aus Hyoscyamus- und Datura-Wurzelkulturen, Colchicin aus Herbstzeitlose, Emetin aus Zell- und Wurzelkulturen der Brechwurz, Codein und Morphin aus Zellkulturen des Schlafmohns, Chinidin und Chinin aus Zellkulturen von Cinchona succirubra bzw. Cinchona ledgeriana, Ajmalin, Rescinamin, Reserpin aus Zellkulturen von Rauwolfia-Arten. Diese Substanzen werden arzneilich eingesetzt. Insbesondere sind also die Stoffgruppen der Indolalkaloide, der Isochinolinalkaloide, der Lignane und Isoprenoide zu nennen. […]

[8] = system: Kultur von Rauwolfia serpentina; test: Elicitation of vallesiachotamine in cell culture; assay type: cell-based; conditions: 200 umol/1, cultivated 4 further days
Experimental: as §1
Eine Kultur von Rauwolfia serpentina, in LS-Medium 3 Tage gewachsen, wird zu einer Endkonzentration von 200 umol/1 mit Jasmonsäure versetzt und 4 Tage weiterkultiviert. Der methanolische Extrakt des Gewebes enthält eine 8-fache Vallesiacotamin-Konzentration gegenüber der Kontrolle. Der Absolutwert ist 70 mg/I Medium.

[9] = system: Zellsuspensionskultur von Eschscholtzia californica; test: cells; conditions: 120 h, read-out: Steigerung der Benzophenanthridin-Produktion
Source text: (§3) Die Zellkultur wird in Flüssigmedium kultiviert und kann entweder in entsprechenden Kulturgefäßen oder in Fermentern herangezogen werden. Nach einer Anwachsphase von 2 bis 10 Tagen wird dem Medium eine in Ethanol gelöste Verbindung der Formel (I) zugesetzt. […] Nach Bildung der maximalen Konzentration an Sekundärstoffen wird der Versuch durch Separierung der Zellen vom Medium abgebrochen und die Sekundärstoffe werden anschließend nach bekannten Verfahren aus dem Zellüberstand oder den Zellen isoliert.
(§4) Einer Zellsuspensionskultur von Eschscholtzia californica, die in 1 Liter LS-Nährmedium (Linsmaier, E. M., Skoog, F., Physiol. Plant 18, 100 (1965)) herangewachsen ist und deren Frischgewicht 200 g beträgt, wird Methyljasmonat zu einer Endkonzentration von 20 umol/1 zugesetzt. Die Kultur wird für 5 Tage weiterkultiviert, anschließend mit 200 ml salzsaurem Ethanol (1,7 ml HCI konz./1 I Ethanol) 2 Stunden lang bei 60 ° C extrahiert.

[10] = system: Zellsuspensionskultur von Eschscholtzia californica; conditions: 20 umol/1; cultivated 5 further days; per litre culture medium
Source text: as §3, §4

Kultur von Glycine max = test: cells; conditions: 144 h, read-out: höhere Konzentration an Daidcein- und Genistein-Glycosiden
Experimental: Die Zellkultur wird in Flüssigmedium kultiviert und kann entweder in entsprechenden Kulturgefäßen oder in Fermentern herangezogen werden. Nach einer Anwachsphase von 2 bis 10 Tagen wird dem Medium eine in Ethanol gelöste Verbindung der Formel (I) zugesetzt.
Eine Kultur von Glycine max wird mit 330 g Frischgewicht in 1 Liter 4x-Medium (Gamborg, Miller, Ojima, Experiment Research 50, 151 - 158 (1968)), 2,4-D 2 mg/I, NES 0,5 mg/I, IES 0,5 mg/I, Kinetin 0,2 mg/I versetzt. 3 Tage später wird Methyljasmonat zu einer Endkonzentration von 250 umol/1 zugesetzt. Nach einer Kultivierungsperiode von 6 Tagen wird die Kultur mit Methanol extrahiert (50 g Frischgewicht/200 ml Methanol; 2 Stunden, 60 ° C).

Berberinbrückenenzym = test: mRNA hybridisation with a probe against the berberine bridge enzyme after elicitation; assay type: cell-based, Eschscholtzia californica; conditions: elicited as in Beispiel 1
Source text: Zellkulturen von Eschscholtzia californica werden - wie in Beispiel 1 beschrieben - mit Methyljasmonat elicitiert. Nach Zugabe des Jasmonats werden im Abstand von je 1 Stunde Aliquots entnommen und die m-RNA extrahiert. Die m-RNA wird mit einer Probe gegen das Berberinbrückenenzym, ein Schlüsselenzym des Benzophenanthridin-Stoffwechsels, hybridisiert. […] Die so induzierte m-RNA ist ein Indiz für die Genaktivierung der an der Elicitierung und an der Alkaloidbiosynthese beteiligten Enzyme. Die Verbindungen der Formel (I) sind demnach in der Lage, reprimierte Sekundärstoffgene zu aktivieren.

[11] = system: Kultur von Ruta chalepensis; test: Elicitation of rutacridone in cell culture; assay type: cell-based; conditions: 40 µmol/l; cultivated 5 further days; methanol extract
Source text: as §1
Eine 2 Tage alte Kultur von Ruta chalepensis (4x-Medium) wird mit Jasmonatglukosid zu einer Endkonzentration von 40 µmol/l versetzt, für 5 Tage weiterkultiviert und mit Methanol extrahiert. Der Extrakt zeigt einen 18-fachen Rutacridon-Gehalt gegenüber der Kontrolle.

2',3'-Dihydrojasmonat
Zuwachs an Alizarin gegenüber der Kontrolle [1]: ca. 40 -fach

3-Hydroxyjasmonat
Indolalkaloide gebildet, die in der Kontrollkultur nicht vorkommen [2]: 6

3-Hydroxyjasmonsäure
Lettucenin A Konzentration [3]: ca. 30 mg/I

CC/C=C\C[C@H]1C(=O)CC[C@@H]1CC(=O)O [Jasmonat]
Gossipol gesteigert gegenüber der Kontrolle (Gossypium herbaceum): 10 -fach
Cardenoloide, gesteigerte Konzentration gegenüber der Kontrolle (Digitalis purpurea): 2 -fach
Emetin Steigerung gegenüber der Kontrolle [4]: 7,5 -fach
Colchicin Steigerung gegenüber der Kontrolle [5]: 8 -fach
Hyoscyamin/Scopolamin Steigerung gegenüber der Kontrolle [6]: 12 -fach
Lignane gesteigert (Linum hirsutum): 2,5 -fach
Steigerung [7]: 14 -fach

CCC=CCC1C(=O)CCC1CC(=O)O (stereo not drawn) [Jasmonsäure]
Vallesiacotamin-Konzentration, Absolutwert [8]: 70 mg/I Medium
fold induction at 200 µM ([8]; Rauvolfia serpentina, 96 h, methanolic extract of the tissue, read-out: Vallesiacotamin-Konzentration gegenüber der Kontrolle): 8

CCC=CCC1C(=O)CCC1CC(=O)OC (stereo not drawn) [Methyljasmonat]
fold induction at 20 µM [9]: 15
Gesamtausbeute der Kultur, Benzophenanthridine pro Liter Kulturmedium [10]: 300 mg
fold induction at 250 µM (Kultur von Glycine max): ~30
spezifische m-RNA-Menge (Berberinbrückenenzym; in 2 hours after addition, versus control culture): verdoppelt
spezifische m-RNA-Menge (Berberinbrückenenzym; in 10 hours after addition, then decreases again): weiter ansteigt

Jasmonatglukosid
Rutacridon-Gehalt gegenüber der Kontrolle [11]: 18 -fach
